# Data published in publication PMC5218480 (PLoS ONE, 2017).
# Tested on: MV-4-11 cells
# Assay: Gene expression microarray analysis (Affymetrix PrimeView) and GSEA
# Type: cell-based, human
# Design: RFU PODN (11730768_x_at) / Fold change /veh PODN (11730768_x_at) / RFU LINC00158 (11744669_a_at) / Fold change /veh LINC00158 (11744669_a_at) / RFU DUSP10 (11751237_a_at) / Fold change /veh DUSP10 (11751237_a_at) / RFU ID3 (11757404_x_at) / Fold change /veh ID3 (11757404_x_at) / RFU PLEKHG5 (11737974_s_at) / Fold change /veh PLEKHG5 (11737974_s_at) / RFU LRRC4B (11730491_at) / Fold change /veh LRRC4B (11730491_at) / RFU GIMAP4 (11747438_a_at) / Fold change /veh GIMAP4 (11747438_a_at) / RFU KRT8 (11758183_x_at) / Fold change /veh KRT8 (11758183_x_at) / RFU CNN1 (11734310_a_at) / Fold change /veh CNN1 (11734310_a_at) / RFU VPS37D (11726825_at) / Fold change /veh VPS37D (11726825_at) / RFU C10orf10 (11716522_x_at) / Fold change /veh C10orf10 (11716522_x_at) / RFU KIR2DL2 /// KIR2DL4 /// KIR2DL5A /// KIR2DL5B /// KIR2DS1 /// KIR2DS2 /// KIR2DS3 /// KIR2DS4 /// KIR3DL3 /// KIR3DL3 /// KIR3DS1 (11738374_at) / Fold change /veh KIR2DL2 /// KIR2DL4 /// KIR2DL5A /// KIR2DL5B /// KIR2DS1 /// KIR2DS2 /// KIR2DS3 /// KIR2DS4 /// KIR3DL3 /// KIR3DL3 /// KIR3DS1 (11738374_at) / RFU C1QL1 (11718748_at) / Fold change /veh C1QL1 (11718748_at) / RFU TMPRSS4 (11747572_a_at) / Fold change /veh TMPRSS4 (11747572_a_at) / RFU HAMP (11756126_x_at) / Fold change /veh HAMP (11756126_x_at) / RFU RNFT2 (11725882_a_at) / Fold change /veh RNFT2 (11725882_a_at) / RFU NR4A2 (11747474_a_at) / Fold change /veh NR4A2 (11747474_a_at) / RFU ABCC12 (11746883_a_at) / Fold change /veh ABCC12 (11746883_a_at) / RFU TMEM136 (11760407_x_at) / Fold change /veh TMEM136 (11760407_x_at) / RFU CLDN22 /// WWC2 (11732394_at) / Fold change /veh CLDN22 /// WWC2 (11732394_at) / RFU HLA-DPB1 (11760878_x_at) / Fold change /veh HLA-DPB1 (11760878_x_at) / RFU SPINT1 (11716480_a_at) / Fold change /veh SPINT1 (11716480_a_at) / RFU GAP43 (11754022_s_at) / Fold change /veh GAP43 (11754022_s_at) / RFU A4GNT (11735810_at) / Fold change /veh A4GNT (11735810_at) / RFU PRB3 (11715151_x_at) / Fold change /veh PRB3 (11715151_x_at) / RFU TUBB4B (11761932_at) / Fold change /veh TUBB4B (11761932_at) / RFU CAPN14 (11732068_a_at) / Fold change /veh CAPN14 (11732068_a_at) / RFU TMCC2 (11721928_a_at) / Fold change /veh TMCC2 (11721928_a_at) / RFU IRGQ (11745062_a_at) / Fold change /veh IRGQ (11745062_a_at) / RFU FAM174B (11720279_a_at) / Fold change /veh FAM174B (11720279_a_at) / RFU TMPRSS4 (11748680_a_at) / Fold change /veh TMPRSS4 (11748680_a_at) / RFU FAM212B (11763350_a_at) / Fold change /veh FAM212B (11763350_a_at) / RFU PLEKHG5 (11743358_a_at) / Fold change /veh PLEKHG5 (11743358_a_at) / RFU ZSCAN30 (11745921_a_at) / Fold change /veh ZSCAN30 (11745921_a_at) / RFU CMKLR1 (11741424_a_at) / Fold change /veh CMKLR1 (11741424_a_at) / RFU LOC101060620 /// MAPK8IP1 (11723275_at) / Fold change /veh LOC101060620 /// MAPK8IP1 (11723275_at) / RFU SPTSSB (11747773_x_at) / Fold change /veh SPTSSB (11747773_x_at) / RFU PRSS12 (11739890_at) / Fold change /veh PRSS12 (11739890_at) / RFU BIN1 (11741810_x_at) / Fold change /veh BIN1 (11741810_x_at) / RFU WNT11 (11732464_a_at) / Fold change /veh WNT11 (11732464_a_at) / RFU C10orf10 (11716521_a_at) / Fold change /veh C10orf10 (11716521_a_at) / RFU C5orf56 (11738089_at) / Fold change /veh C5orf56 (11738089_at) / RFU CYB561 (11721691_x_at) / Fold change /veh CYB561 (11721691_x_at) / RFU ANKRD19P (11752326_a_at) / Fold change /veh ANKRD19P (11752326_a_at) / RFU OR2T12 /// OR2T33 /// OR2T8 (11738714_s_at) / Fold change /veh OR2T12 /// OR2T33 /// OR2T8 (11738714_s_at) / RFU VCAN (11748164_a_at) / Fold change /veh VCAN (11748164_a_at) / RFU JSRP1 (11732532_at) / Fold change /veh JSRP1 (11732532_at) / RFU KRTAP10-11 (11738290_x_at) / Fold change /veh KRTAP10-11 (11738290_x_at) / RFU MYO3A (11730013_a_at) / Fold change /veh MYO3A (11730013_a_at) / RFU EBF3 (11725865_a_at) / Fold change /veh EBF3 (11725865_a_at) / RFU CAMK2N1 (11719241_x_at) / Fold change /veh CAMK2N1 (11719241_x_at) / RFU C5orf56 (11738088_a_at) / Fold change /veh C5orf56 (11738088_a_at) / RFU OLFML3 (11715873_a_at) / Fold change /veh OLFML3 (11715873_a_at) / RFU LOC100653217 /// NTM (11731650_a_at) / Fold change /veh LOC100653217 /// NTM (11731650_a_at) / RFU MAPK11 (11762145_a_at) / Fold change /veh MAPK11 (11762145_a_at) / RFU FIZ1 (11724087_x_at) / Fold change /veh FIZ1 (11724087_x_at) / RFU OASL (11726364_x_at) / Fold change /veh OASL (11726364_x_at) / RFU SOX15 (11748057_x_at) / Fold change /veh SOX15 (11748057_x_at) / RFU CD79A (11719716_a_at) / Fold change /veh CD79A (11719716_a_at) / RFU HIST1H1D (11736915_at) / Fold change /veh HIST1H1D (11736915_at) / RFU CASKIN2 (11723855_a_at) / Fold change /veh CASKIN2 (11723855_a_at) / RFU LOC730098 (11760151_x_at) / Fold change /veh LOC730098 (11760151_x_at) / RFU OR4N2 (11742367_at) / Fold change /veh OR4N2 (11742367_at) / RFU PRRT2 (11749266_a_at) / Fold change /veh PRRT2 (11749266_a_at) / RFU SNX32 (11753110_a_at) / Fold change /veh SNX32 (11753110_a_at) / RFU CDHR5 (11726645_a_at) / Fold change /veh CDHR5 (11726645_a_at) / RFU RCAN1 (11760418_a_at) / Fold change /veh RCAN1 (11760418_a_at) / RFU FAM167A (11723789_a_at) / Fold change /veh FAM167A (11723789_a_at) / RFU FAM26E (11764081_at) / Fold change /veh FAM26E (11764081_at) / RFU ISYNA1 (11749810_s_at) / Fold change /veh ISYNA1 (11749810_s_at) / RFU ACY1 (11761880_at) / Fold change /veh ACY1 (11761880_at) / RFU 11764098_at / Fold change /veh 11764098_at / RFU SAMD14 (11745864_x_at) / Fold change /veh SAMD14 (11745864_x_at) / RFU NPB (11741838_a_at) / Fold change /veh NPB (11741838_a_at) / RFU TMPRSS6 (11731388_a_at) / Fold change /veh TMPRSS6 (11731388_a_at) / RFU KRTAP10-2 (11738614_at) / Fold change /veh KRTAP10-2 (11738614_at) / RFU ARHGAP8 /// PRR5-ARHGAP8 (11727945_x_at) / Fold change /veh ARHGAP8 /// PRR5-ARHGAP8 (11727945_x_at) / RFU KRTAP5-7 /// NADSYN1 (11734609_at) / Fold change /veh KRTAP5-7 /// NADSYN1 (11734609_at) / RFU RASL12 (11751679_a_at) / Fold change /veh RASL12 (11751679_a_at) / RFU CDKN2B (11736163_a_at) / Fold change /veh CDKN2B (11736163_a_at) / RFU PRF1 (11729649_at) / Fold change /veh PRF1 (11729649_at) / RFU, ZNF638 /// ZNF638-IT1 / Fold change vs veh, ZNF638 /// ZNF638-IT1 / RFU, PANK3 / Fold change vs veh, PANK3 / RFU, SH3YL1 / Fold change vs veh, SH3YL1 / RFU, ZEB2 / Fold change vs veh, ZEB2 / RFU, NRIP1 / Fold change vs veh, NRIP1 / RFU, PTTG1IP / Fold change vs veh, PTTG1IP / RFU, CAPN2 / Fold change vs veh, CAPN2 / RFU, MED14 / Fold change vs veh, MED14 / RFU, SNORA58 / Fold change vs veh, SNORA58 / RFU, C1orf63 / Fold change vs veh, C1orf63 / RFU, LRRFIP1 / Fold change vs veh, LRRFIP1 / RFU, NDUFAF7 / Fold change vs veh, NDUFAF7 / RFU, SLC12A2 / Fold change vs veh, SLC12A2 / RFU, IBTK / Fold change vs veh, IBTK / RFU, ESF1 / Fold change vs veh, ESF1 / Fold change vs veh, TMEM50B / RFU, TAOK1 / Fold change vs veh, TAOK1 / RFU, ACBD3 / Fold change vs veh, ACBD3 / RFU, TMA16 / Fold change vs veh, TMA16 / RFU, RWDD3 / Fold change vs veh, RWDD3 / RFU, BCAT1 / Fold change vs veh, BCAT1 / RFU, EDEM3 / Fold change vs veh, EDEM3 / RFU, TMEM33 / Fold change vs veh, TMEM33 / RFU, WDR75 / Fold change vs veh, WDR75 / RFU, AHCTF1 / Fold change vs veh, AHCTF1 / RFU, TFRC / Fold change vs veh, TFRC / RFU, ZDHHC17 / Fold change vs veh, ZDHHC17 / RFU, NOM1 / Fold change vs veh, NOM1 / RFU, ARL8B / Fold change vs veh, ARL8B / RFU, ZBTB11 / Fold change vs veh, ZBTB11 / RFU, TAMM41 / Fold change vs veh, TAMM41 / RFU, KIAA1704 /// LOC100996395 / Fold change vs veh, KIAA1704 /// LOC100996395 / RFU, ING1 / Fold change vs veh, ING1 / RFU, TRMT61B / Fold change vs veh, TRMT61B / RFU, FUBP3 / Fold change vs veh, FUBP3 / RFU, TP53 / Fold change vs veh, TP53 / RFU, TNKS2 / Fold change vs veh, TNKS2 / RFU, ZFP14 / Fold change vs veh, ZFP14 / RFU, ACTR2 / Fold change vs veh, ACTR2 / RFU, PPP3R1 / Fold change vs veh, PPP3R1 / RFU, PIK3R1 / Fold change vs veh, PIK3R1 / RFU, HNRNPA1 / Fold change vs veh, HNRNPA1 / RFU, RNF170 / Fold change vs veh, RNF170 / RFU, ZNF28 / Fold change vs veh, ZNF28 / RFU, RNGTT / Fold change vs veh, RNGTT / RFU, OGT / Fold change vs veh, OGT / RFU, BRD1 / Fold change vs veh, BRD1 / RFU, MARS / Fold change vs veh, MARS / RFU, ZNF655 / Fold change vs veh, ZNF655 / RFU, FAHD1 / Fold change vs veh, FAHD1 / RFU, BDP1 / Fold change vs veh, BDP1 / RFU, LRRCC1 / Fold change vs veh, LRRCC1 / RFU, ARID1A / Fold change vs veh, ARID1A / RFU, ZNF146 / Fold change vs veh, ZNF146 / RFU, ZNF330 / Fold change vs veh, ZNF330 / RFU, GPN3 / Fold change vs veh, GPN3 / RFU, C9orf123 / Fold change vs veh, C9orf123 / RFU, N4BP2L2 / Fold change vs veh, N4BP2L2 / RFU, ARFIP1 / Fold change vs veh, ARFIP1 / RFU, FAM179B / Fold change vs veh, FAM179B / RFU, BCL10 / Fold change vs veh, BCL10 / RFU, UHRF1BP1L / Fold change vs veh, UHRF1BP1L / RFU, BET1 / Fold change vs veh, BET1 / RFU, CNOT2 / Fold change vs veh, CNOT2 / RFU, ZNF268 / Fold change vs veh, ZNF268 / Fold change vs veh, ZNF507 / RFU, DGCR2 / Fold change vs veh, DGCR2 / RFU, WDSUB1 / Fold change vs veh, WDSUB1 / Fold change vs veh, HSP90B1 /// MIR3652 / RFU, ADSS / Fold change vs veh, ADSS / RFU, GK / Fold change vs veh, GK / RFU, ZNF148 / Fold change vs veh, ZNF148 / RFU, TAF9 / Fold change vs veh, TAF9 / RFU, SLC1A5 / Fold change vs veh, SLC1A5 / RFU, SLMO2 / Fold change vs veh, SLMO2 / RFU, ABCC4 / Fold change vs veh, ABCC4 / RFU, LOC101060439 /// RAP1B / Fold change vs veh, LOC101060439 /// RAP1B / RFU, RFX7 / Fold change vs veh, RFX7 / RFU, GTPBP10 / Fold change vs veh, GTPBP10 / RFU, CNEP1R1 / Fold change vs veh, CNEP1R1 / RFU, BIVM-ERCC5 /// ERCC5 / Fold change vs veh, BIVM-ERCC5 /// ERCC5 / RFU, ILF3 / Fold change vs veh, ILF3 / RFU 11762660_at / Fold change /veh 11762660_at / RFU VCAN (11757783_s_at) / Fold change /veh VCAN (11757783_s_at) / RFU DDX43 (11728927_at) / Fold change /veh DDX43 (11728927_at) / RFU KRT8 (11758188_x_at) / Fold change /veh KRT8 (11758188_x_at) / RFU NKD1 (11759106_at) / Fold change /veh NKD1 (11759106_at) / RFU SRD5A1 (11742802_a_at) / Fold change /veh SRD5A1 (11742802_a_at) / RFU TPSAB1 /// TPSB2 (11721975_s_at) / Fold change /veh TPSAB1 /// TPSB2 (11721975_s_at) / RFU GSTM3 (11746129_a_at) / Fold change /veh GSTM3 (11746129_a_at) / RFU IL23R (11737362_x_at) / Fold change /veh IL23R (11737362_x_at) / RFU TMEM51 (11727254_a_at) / Fold change /veh TMEM51 (11727254_a_at) / RFU PIWIL2 (11732686_x_at) / Fold change /veh PIWIL2 (11732686_x_at) / RFU ORM1 (11744905_x_at) / Fold change /veh ORM1 (11744905_x_at) / RFU CCDC152 (11743942_at) / Fold change /veh CCDC152 (11743942_at) / RFU ECM1 (11717891_a_at) / Fold change /veh ECM1 (11717891_a_at) / RFU IL23R (11748794_a_at) / Fold change /veh IL23R (11748794_a_at) / RFU TNFAIP8L3 (11732012_x_at) / Fold change /veh TNFAIP8L3 (11732012_x_at) / RFU MBOAT4 (11741988_at) / Fold change /veh MBOAT4 (11741988_at) / RFU 11764193_at / Fold change /veh 11764193_at / RFU TMEM53 (11763286_at) / Fold change /veh TMEM53 (11763286_at) / RFU MAGEB2 (11727129_at) / Fold change /veh MAGEB2 (11727129_at) / RFU TMEM200A (11744735_a_at) / Fold change /veh TMEM200A (11744735_a_at) / RFU CCDC152 (11751479_a_at) / Fold change /veh CCDC152 (11751479_a_at) / RFU FAM211A (11726209_a_at) / Fold change /veh FAM211A (11726209_a_at) / RFU RGS16 (11746705_a_at) / Fold change /veh RGS16 (11746705_a_at) / RFU VCAN (11755009_s_at) / Fold change /veh VCAN (11755009_s_at) / RFU RHOB (11743442_s_at) / Fold change /veh RHOB (11743442_s_at) / RFU RGS16 (11720943_a_at) / Fold change /veh RGS16 (11720943_a_at) / RFU RGS16 (11720944_at) / Fold change /veh RGS16 (11720944_at) / RFU, VPS4B / Fold change vs veh, VPS4B / RFU, CREB1 / Fold change vs veh, CREB1 / RFU, DNAJC13 / Fold change vs veh, DNAJC13 / RFU, GNAQ / Fold change vs veh, GNAQ / RFU, CDK5R1 / Fold change vs veh, CDK5R1 / RFU, ZRANB3 / Fold change vs veh, ZRANB3 / RFU, CUL4A / Fold change vs veh, CUL4A / RFU, CCNY / Fold change vs veh, CCNY / RFU, UFL1 / Fold change vs veh, UFL1 / RFU, COG3 / Fold change vs veh, COG3 / RFU, DIAPH2 / Fold change vs veh, DIAPH2 / RFU, SKA2 / Fold change vs veh, SKA2 / RFU, AFF3 / Fold change vs veh, AFF3 / RFU, LMF1 / Fold change vs veh, LMF1 / RFU, IPO11 / Fold change vs veh, IPO11 / RFU, DFFB / Fold change vs veh, DFFB / RFU, FOXP1 / Fold change vs veh, FOXP1 / RFU, CARD8 / Fold change vs veh, CARD8 / RFU, STRN3 / Fold change vs veh, STRN3 / RFU, ADK / Fold change vs veh, ADK / RFU, RASSF2 / Fold change vs veh, RASSF2 / RFU, WIPF1 / Fold change vs veh, WIPF1 / RFU, LARP1B / Fold change vs veh, LARP1B / RFU, RASA1 / Fold change vs veh, RASA1 / RFU, RB1 / Fold change vs veh, RB1 / RFU, PPFIA1 / Fold change vs veh, PPFIA1 / RFU, MAT2A / Fold change vs veh, MAT2A / RFU, CCT5 / Fold change vs veh, CCT5 / RFU, WDR92 / Fold change vs veh, WDR92 / RFU, CUX1 / Fold change vs veh, CUX1 / RFU, TTC7A / Fold change vs veh, TTC7A / RFU, TMEM135 / Fold change vs veh, TMEM135 / RFU, DEPTOR / Fold change vs veh, DEPTOR / RFU, CPM / Fold change vs veh, CPM / RFU, DNAJB6 / Fold change vs veh, DNAJB6 / RFU, CACNA2D3 / Fold change vs veh, CACNA2D3 / RFU, DTX4 / Fold change vs veh, DTX4 / RFU, TFCP2 / Fold change vs veh, TFCP2 / RFU, GMCL1 /// GMCL1P1 / Fold change vs veh, GMCL1 /// GMCL1P1 / RFU, AEBP2 / Fold change vs veh, AEBP2 / RFU, SNHG1 /// SNORD22 /// SNORD25 /// SNORD26 /// SNORD27 /// SNORD28 /// SNORD29 /// SNORD31 / Fold change vs veh, SNHG1 /// SNORD22 /// SNORD25 /// SNORD26 /// SNORD27 /// SNORD28 /// SNORD29 /// SNORD31 / Fold change (Aza/veh), C12orf56 (ProbeSet 11735607_a_at) / Fold change (ACY-1035/veh), C12orf56 (ProbeSet 11735607_a_at) / Fold change (Aza/veh), FGFR1OP (ProbeSet 11751329_s_at) / Fold change (ACY-1035/veh), FGFR1OP (ProbeSet 11751329_s_at) / Fold change (Aza/veh), VPS36 (ProbeSet 11739960_a_at) / Fold change (ACY-1035/veh), VPS36 (ProbeSet 11739960_a_at) / RFU SYPL1 (11715823_x_at) / Fold change /veh SYPL1 (11715823_x_at) / RFU IGFBP7 (11715501_s_at) / Fold change /veh IGFBP7 (11715501_s_at) / RFU REEP3 (11722064_at) / Fold change /veh REEP3 (11722064_at) / RFU IGLL1 (11728026_x_at) / Fold change /veh IGLL1 (11728026_x_at): dose or concentration left out as unconfirmed
# Conditions: MV-4-11 cells, 48 hours
compound,measurement,value
Nc1ncn([C@@H]2O[C@H](CO)[C@@H](O)[C@H]2O)c(=O)n1 [azacitidine],RFU FAM174B (11720279_a_at),25.09 RFU
